According to patent US10718769B2, “Compounds comprising one or more hydrophobic domains and a hydrophilic domain comprising peg moieties, useful for binding cells” (Roche Diagnostics Operations, Inc., priority 2013, dated 2020):
Values joined by “and” are separate entries in the source; they are usually repeats but may differ in a detail not shown here. Equal entries are not always repeated. Where two headings read alike, the source gives them in different places.

Columns and labels:
WBC [1] = test: WBC recovery rate after centrifugation (stabilization of cells, Example 5); assay type: cell-based; details: centrifugation 20 min
Procedure: (§1) Centrifugation characteristics: 10 min, 300×g.
as §1
The respective left, middle and right columns per assay represent different Experimenters 1, 2 and 3. […] Centrifugation characteristics: 10 min, 300×g. Molecule: Cholesteryl-TEG-Cholesteryl-TEG-(SpacerC18)7-Fluos-Biotin-TEG.
(§2) Following molecules were tested: 1234: 5′-(Cholesteryl-TEG)2-Spacer C18-dT-Biotin-TEG-3′; 1248: 3′-(Cholesteryl-TEG)2-PEG2000-Fluos-Biotin-TEG-5′ INVERS; 1254: 3′-(Cholesteryl-TEG)2-SpacerC18-Fluos-Biotin-TEG-5′ INVERS; 1255: 3′-(Myristic acid)2-PEG2000-dT-Biotin-TEG-5′ INVERS. […] Centrifugation characteristics: 20 min, 300×g. Respective left column: 10 min incubation with molecule. Respective middle column: 1 h min incubation with molecule. Respective right column: 2 h incubation with molecule.
Following molecules were tested: 1255: 3′-(Myristic acid)2-PEG2000-dT-Biotin-TEG-5′ INVERS; 1234: 5′-(Cholesteryl-TEG)2-Spacer C18-dT-Biotin-TEG-3′; 1248: 3′-(Cholesteryl-TEG)2-PEG2000-Fluos-Biotin-TEG-5′ INVERS; 1254: 3′-(Cholesteryl-TEG)2-SpacerC18-Fluos-Biotin-TEG-5′ INVERS. […] Centrifugation characteristics: 20 min, 500×g. Respective left column: 10 min incubation with molecule. Respective middle column: 1 h min incubation with molecule. Respective right column: 3 h incubation with molecule.
as §2, with “tested: 1255: 3′-(Myristic acid)2-PEG2000-dT-Biotin-TEG-5′ INVERS;” for “tested:”, “3′-(Cholesteryl-TEG)2-SpacerC18-Fluos-Biotin-TEG-5′” for “3′-(Cholesteryl-TEG)2-SpacerC18-Fluos-Biotin-TEG-5′ INVERS; 1255: 3′-(Myristic acid)2-PEG2000-dT-Biotin-TEG-5′”, “1000×g.” for “300×g.”
The effect of compounds of the invention on stabilizing cells and on immobilization was determined.
Centrifugation characteristics: 10 min, 300×g. A: Choleseryl-TEG-Cholesteryl-TEG-(SpacerC18)7-Fluos-Biotin-TEG.
Centrifugation characteristics: 10 min, 300×g. Molecule: Cholesteryl-TEG-Cholesteryl-TEG-(SpacerC18)7-Fluos-Biotin-TEG.
Centrifugation characteristics: 20 min, 300×g.
(§3) Following molecules were tested: • 1255: 3′-(Myristic acid)2-PEG2000-dT-Biotin-TEG-5′ INVERS • 1234: 5′-(Cholesteryl-TEG)2-Spacer C18-dT-Biotin-TEG-3′ • 1248: 3′-(Cholesteryl-TEG)2-PEG2000-Fluos-Biotin-TEG-5′ INVERS • 1254: 3′-(Cholesteryl-TEG)2-SpacerC18-Fluos-Biotin-TEG-5′ INVERS

Jurkat cells = details: centrifugation 20 min, 500×g; within 5.5 h incubation with molecule
Procedure: Respective columns from left: 1: 10 min incubation with molecule. 2: 1 h incubation with molecule. 3: 3,5 h incubation with molecule. 4: 5.5 h min incubation with molecule. Following molecules were tested: 1255: 3′-(Myristic acid)2-PEG2000-dT-Biotin-TEG-5′ INVERS. 1234: 5′-(Cholesteryl-TEG)2-Spacer C18-dT-Biotin-TEG-3′; 1248: 3′-(Cholesteryl-TEG)2-PEG2000-Fluos-Biotin-TEG-5′ INVERS; 1254: 3′-(Cholesteryl-TEG)2-SpacerC18-Fluos-Biotin-TEG-5′ INVERS. […] Centrifugation characteristics: 20 min, 500×g.
as §3
(§4) Centrifugation characteristics: 20 min, 500×g.

MDA-MB468 cells = details: centrifugation 20 min, 500×g; within 5 h incubation with molecule
Procedure: Respective columns from left: 1: 10 min incubation with molecule. 2: 1 h incubation with molecule. 3: 3 h incubation with molecule. 4: 5 h min incubation with molecule. Following compounds for use according to the invention were tested: 1234: 5′-(Cholesteryl-TEG)2-Spacer C18-dT-Biotin-TEG-3′; 1255: 3′-(Myristic acid)2-PEG2000-dT-Biotin-TEG-5′ INVERS. […] Centrifugation characteristics: 20 min, 500×g.
Following compounds of the invention were tested: • 1234: 5′-(Cholesteryl-TEG)2-Spacer C18-dT-Biotin-TEG-3′ • 1255: 3′-(Myristic acid)2-PEG2000-dT-Biotin-TEG-5′ INVERS
as §4

white blood cells (WBCs) = details: for WBC per well: 300 000 WBCs/well
Procedure: Aim of this experiment: Testing of the white blood cell immobilization on a streptavidin-coated surface using different molecules of the invention. In particular, the performance of a single cholesterol-molecule and different dual-linker molecules (i.e. containing two hydrophobic moieties) was tested. In detail, immobilization of white blood cells (WBCs) on a Streptavidin-coated surface using different linker molecules was tested on a 12-well plate: 300 000 WBCs/well. This was followed by the measurement of the cell recovery rate after immobilization and washing of the cells using the Cellavista instrument (10× Nuclei Operator s9s5).

CHO = test: Labelling of cells using compounds of the invention; assay type: cell-based
From the text: (§5) 2. Labelling of Cells Using Compounds of the Invention

COS 7 = test: as above; assay type: cell-based
From the text: as §5

Epithelial cells = test: as above; assay type: cell-based
From the text: as §5

Hela = test: as above; assay type: cell-based; details: * one cell stained weakly
From the text: as §5

Jurkats = test: as above; assay type: cell-based
From the text: as §5

MDA-MB468 = test: as above; assay type: cell-based
From the text: as §5

NIH 3T3 = test: as above; assay type: cell-based; details: * one cell not stained
From the text: as §5

U937 = test: as above; assay type: cell-based
From the text: as §5

WBC [2] = test: Immobilization of cells, recovery rate of cells (Example 3 A and D); assay type: cell-based; details: WBCs
Procedure: In the following experiment, the recovery rate of cells was determined.

WBCs = test: Labelling of cells using compounds of the invention; assay type: cell-based
From the text: as §5

[3] = Sample 2, compound concentration: 100 pmol/10e6 WBCs
[4] = Sample 2, compound concentration: 1 nmol/10e6 WBCs

Molecule	Stability of Jurkat culture cells during centrifugation (Jurkat cells)	Labelling (staining) of CHO (CHO)	Labelling (staining) of COS 7 (COS 7)	Labelling (staining) of Epithelial cells (Epithelial cells)	Labelling (staining) of Hela (Hela)	Labelling (staining) of Jurkats (Jurkats)	Labelling (staining) of MDA-MB468 (MDA-MB468)	Labelling (staining) of NIH 3T3 (NIH 3T3)	Labelling (staining) of U937 (U937)	also measured
3′-(Myristic acid)2-PEG2000-dT-Biotin-TEG-5′ INVERS [compound 1255]	stable during centrifugation processes									Performance in WBC recovery rate after centrifugation (ranking) (WBC [1]; 300×g): followed by compound 1255; Performance in WBC recovery rate after centrifugation (ranking) (WBC [1]; 500×g): followed by molecule 1255; Stability of MDA-MB468 culture cells during centrifugation (MDA-MB468 cells): stable during centrifugation processes
5′-(Cholesteryl-TEG)2-Spacer C18-Fluos-Biotin_TEG-3′ INVERS [29.891254]	stable during centrifugation processes									WBC per well (white blood cells (WBCs); Sample 1, first block of the table (r4-r12), footnote: 1 nmol/10e6 WBCs): 157660 and 190148 and 170850; WBC per well (white blood cells (WBCs); Sample 1, second block of the table (r13-r21), compound concentration: 1 nmol/10e6 WBCs): 244649 and 234262 and 260760; Mean (WBC per well) (white blood cells (WBCs); [3]): 197067.00; WBC per well (white blood cells (WBCs); [3]): 200184 and 205917 and 185100; Mean (WBC per well) (white blood cells (WBCs); [4]): 245376.00; WBC per well (white blood cells (WBCs); [4]): 244396 and 244304 and 247428
5′-(Cholesteryl-TEG)2-Spacer C18-dT-Biotin-TEG-3′ [compound 1234]	stable during centrifugation processes									Stability of MDA-MB468 culture cells during centrifugation (MDA-MB468 cells): stable during centrifugation processes
5′-CholesterylTEG-CholesterylTEG-PEG2000-Fluos-3′ [BMO 29.891133]		√	√	√	√	√	√	√	√	
5′-CholesterylTEG-CholesterylTEG-PEG2000-Fluos-BiotinTEG-3′ [BMO 29.891180]										staining (Remarks) (WBC [2]): strong
CCCCCCCCCCCCCCCCCCN1C(=CC=CC2=[N+](CCCCCCCCCCCCCCCCCC)c3ccccc3C2(C)C)C(C)(C)c2ccccc21.[O-][Cl+3]([O-])([O-])[O-] [1,1′-Dioctadecyl-3,3,3′,3′-tetramethylindocarbocyanin perchlorate]		√	√	√	√	√	√	√*	√	Labelling (staining) of WBCs (WBCs): √ not all
CCCCC/C=C\C/C=C\CCCCCCCCN1C(=CC=CC2=[N+](CCCCCCCC/C=C\C/C=C\CCCCC)c3ccccc3C2(C)C)C(C)(C)c2ccccc21.[O-][Cl+3]([O-])([O-])[O-] [Linol, 1,1′-dilinoleyl-3,3,3′,3′-tetramethylindocarbocyanine perchlorate]		√	√	√	√	√	√	√	√	
CCCCCCCCCCCCCCCCCCCCCC[N+]1=C(/C=C/C=C2/N(CCCCCCCCCCCCCC)c3ccccc3C2(C)C)C(C)(C)c2ccccc21.[I-] [PKH26]		√	√	√ not all	√*	√	√	√	√	
